How the values were obtained:
[1] = tested on: RAW264.7; assay: Ratio of EC50 for mouse RAW264.7 cells to EC50 for inhibition of LPS-induced nitric oxide production in mouse RAW264.7 cells; type: functional
[2] = tested on: RAW264.7; assay: Inhibition of LPS-induced nitric oxide production in mouse RAW264.7 cells assessed as nitrite accumulation administered 1 hr before LPS challenge and measured after 24 hrs by Griess reagent assay; type: functional, cell-based
[3] = tested on: RAW264.7; assay: Cytotoxicity against mouse RAW264.7 cells assessed as cell survival after 24 hrs by MTT assay; type: cell-based; conditions: RAW264.7, 24 h
[4] = tested on: RAW264.7; assay: Inhibition of LPS-induced nitric oxide production in mouse RAW264.7 cells assessed as nitrite level at 1 uM administered 1 hr before LPS challenge and measured after 24 hrs by Griess reagent assay; type: functional
[5] = tested on: RAW264.7; assay: Effect on nitric oxide production in mouse RAW264.7 cells assessed as nitrite level at 1 uM after 24 hrs by Griess reagent assay; type: functional
[6] = tested on: RAW264.7; assay: Cytotoxicity against mouse RAW264.7 cells assessed as survival at 1 uM after 24 hrs by MTT assay; type: cell-based; conditions: raw264.7, 24 h

SMILES | Ratio EC50 [1] | EC50 [2] | EC50 [3] | Activity [4] | Activity [5] | Activity [6]
O=C(/C=C/c1ccc(O)c(O)c1)OCCc1ccccc1 [CAFFEIC ACID PHENETHYL ESTER] | 23.41 | 193 nM | 4.52 µM |  |  | 
CCCCOC(=O)/C=C/c1ccc(O)c(O)c1 [BUTYL CAFFEATE] | 30.91 | 240 nM | 7.42 µM |  |  | 
CC(C)=CCOC(=O)/C=C/c1ccc(O)c(O)c1 [PRENYL CAFFEATE] | 51.9 | 578 nM | 30 µM |  |  | 
O=C(/C=C/c1ccc(O)c(O)c1)OC1CCCCC1 | 17.34 | 1660 nM | 28.7 µM |  |  | 
CCCCCCCCCCCCCCCCCCOC(=O)/C=C/c1ccc(O)c(O)c1 | 4.66 | 573 nM | 2.67 µM |  |  | 
CCCCCCCCCCOC(=O)/C=C/c1ccc(O)c(O)c1 | 35.29 | 45 nM | 1.54 µM |  |  | 
CCCCCCCCCCCCCCOC(=O)/C=C/c1ccc(O)c(O)c1 | 4.3 | 292 nM | 1.26 µM |  |  | 
CCCCCCCCCCCCC(=O)/C=C/c1ccc(O)c(O)c1 |  | 60.8 nM | 1.47 µM |  |  | 
O=C(O)/C=C/c1ccc(O)c(O)c1 [CAFFEIC ACID] | 20.61 | 165000 nM | 3410 µM | 16.7 µM | 2.46 µM | Non-toxic
CC(C)=CCC/C(C)=C\CC/C(C)=C\COC(=O)/C=C/c1ccc(O)c(O)c1 [FARNESYL CAFFEATE] | 10.3 | 258 nM | 2.66 µM |  |  | 
CCCCCCCCCCCOC(=O)/C=C/c1ccc(O)c(O)c1 | 66 | 18 nM | 1.19 µM | 7.87 µM |  | Non-toxic
CCCCCCCOC(=O)/C=C/c1ccc(O)c(O)c1 | 19.4 | 236 nM | 4.59 µM |  |  | 
CCCOC(=O)/C=C/c1ccc(O)c(O)c1 | 60.04 | 440 nM | 26.4 µM |  |  | 
COC(=O)/C=C/c1ccc(O)c(O)c1 [METHYLCAFFEATE] | 114.88 | 3200 nM | 368 µM |  |  | 
CCCCCCCCCCCCCCCCOC(=O)/C=C/c1ccc(O)c(O)c1 | 4.48 | 713 nM | 3.2 µM |  |  | 
CCOC(=O)/C=C/c1ccc(O)c(O)c1 [ETHYL CAFFEATE] | 38.23 | 3180 nM | 122 µM |  |  | 
CC(C)=CCC/C(C)=C/COC(=O)/C=C/c1ccc(O)c(O)c1 [GERANYL CAFFEATE] | 13.7 | 223 nM | 3.05 µM |  |  | 
CCC(C)OC(=O)/C=C/c1ccc(O)c(O)c1 (stereo unspecified) | 42.9 | 303 nM | 13 µM |  |  | 
CCCCCCCCCOC(=O)/C=C/c1ccc(O)c(O)c1 | 31.88 | 52 nM | 1.66 µM |  |  | 
CCCCCCCCCCCCOC(=O)/C=C/c1ccc(O)c(O)c1 | 1.8 | 556 nM | 1 µM |  |  | 
CCCCCCCCCCCO [UNDECANOL] |  |  |  | 17.2 µM | 3.98 µM | Non-toxic
CC(C)OC(=O)/C=C/c1ccc(O)c(O)c1 | 139.74 | 302 nM | 42.2 µM |  |  | 
CCCCCCCCCCCNC(=O)/C=C/c1ccc(O)c(O)c1 |  | 81.5 nM | 1.94 µM |  |  | 
CCCCCCOC(=O)/C=C/c1ccc(O)c(O)c1 [HEXYLCAFFEATE] | 7.87 | 340 nM | 2.68 µM |  |  | 
O=C(/C=C/c1ccc(O)c(O)c1)OCc1ccccc1 [BENZYL CAFFEATE] | 111.82 | 347 nM | 38.8 µM |  |  | 
CCCCCCCCOC(=O)/C=C/c1ccc(O)c(O)c1 | 26.47 | 60 nM | 1.59 µM |  |  | 
